Laboratory results from paper PMC8338929, “Acetylation turns leucine into a drug by membrane transporter switching” (Scientific Reports, 2021).
Entries after “also recorded” stand apart in the source; their conditions may differ.

Assays:
human PepT1 (SLC15A1) = target: T1, human PepT1 (SLC15A1) (Homo sapiens, UniProt P46059); test: PepT1-mediated cellular uptake in transfected MDCK-II cells; assay type: cell-based; settings: pH 5.5, 37 °C
T1 construct: host or cells: MDCK-II
T1 sequence (P46059 1-708): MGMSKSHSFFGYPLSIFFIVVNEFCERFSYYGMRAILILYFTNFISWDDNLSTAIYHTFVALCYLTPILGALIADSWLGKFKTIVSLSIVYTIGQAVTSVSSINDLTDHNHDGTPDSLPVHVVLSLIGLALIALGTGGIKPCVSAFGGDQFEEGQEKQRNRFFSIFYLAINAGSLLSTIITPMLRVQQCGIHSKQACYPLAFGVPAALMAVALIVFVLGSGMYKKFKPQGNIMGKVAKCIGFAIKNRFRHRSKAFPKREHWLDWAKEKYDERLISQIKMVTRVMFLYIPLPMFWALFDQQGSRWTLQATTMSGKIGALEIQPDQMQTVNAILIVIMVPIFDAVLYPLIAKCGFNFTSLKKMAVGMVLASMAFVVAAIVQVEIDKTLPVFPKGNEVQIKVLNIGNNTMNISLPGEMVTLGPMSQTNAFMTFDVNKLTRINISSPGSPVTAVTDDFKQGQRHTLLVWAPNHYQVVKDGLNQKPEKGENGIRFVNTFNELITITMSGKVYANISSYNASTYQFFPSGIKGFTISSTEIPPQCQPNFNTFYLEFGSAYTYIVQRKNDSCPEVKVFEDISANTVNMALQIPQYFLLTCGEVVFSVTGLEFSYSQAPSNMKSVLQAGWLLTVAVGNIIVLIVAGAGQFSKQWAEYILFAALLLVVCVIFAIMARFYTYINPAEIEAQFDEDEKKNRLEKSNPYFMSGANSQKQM
Experimental: Transport studies with human PepT1 (SLC15A1), LAT1 (SLC7A5) and MCT1 (SLC16A1) were conducted in MDCK-II cells expressing the human transporter or control cells expressing a vector with Green Fluorescence Protein. Cells were transfected using a proprietary, transient transfection system (OPTI-EXPRESSION Technology, BioIVT). The results from the control cells were used to correct for substrate permeation by routes other than the transporter being investigated in the study. […] Specifically, Net Transporter Mediated Substrate Uptake (pmol/min/cm^2) = (Cellular accumulation in the presence of the transporter) − (Mean cellular accumulation in the absence of the transporter). MDCK-II cells were maintained in DMEM with low glucose and 10% FBS. Cells were used at passages up to 40 were seeded at 60,000 ± 10,000 cells/well on 96-well plates approximately 24 h before transfection, and transport assays were performed approximately 48 h after transfection. […]
Transport studies with PepT1 were conducted in 96-well cell culture plate with wells containing a monolayer of MDCK-II cells grown on a permeable support and a corresponding 96-well receiver tray. […] Then a 30-µL sample was taken and mixed with 200 µL of scintillation fluid and scintillation counted (1450 Microbeta, Perkin-Elmer). […]

human MCT1 (SLC16A1) = target: T2, human MCT1 (SLC16A1) (Homo sapiens, UniProt P53985); test: MCT1-mediated cellular uptake in transfected MDCK-II cells; assay type: cell-based; settings: 1 min, room temperature, Michaelis-Menten fit
T2 construct: host or cells: MDCK-II
T2 sequence (P53985 1-500): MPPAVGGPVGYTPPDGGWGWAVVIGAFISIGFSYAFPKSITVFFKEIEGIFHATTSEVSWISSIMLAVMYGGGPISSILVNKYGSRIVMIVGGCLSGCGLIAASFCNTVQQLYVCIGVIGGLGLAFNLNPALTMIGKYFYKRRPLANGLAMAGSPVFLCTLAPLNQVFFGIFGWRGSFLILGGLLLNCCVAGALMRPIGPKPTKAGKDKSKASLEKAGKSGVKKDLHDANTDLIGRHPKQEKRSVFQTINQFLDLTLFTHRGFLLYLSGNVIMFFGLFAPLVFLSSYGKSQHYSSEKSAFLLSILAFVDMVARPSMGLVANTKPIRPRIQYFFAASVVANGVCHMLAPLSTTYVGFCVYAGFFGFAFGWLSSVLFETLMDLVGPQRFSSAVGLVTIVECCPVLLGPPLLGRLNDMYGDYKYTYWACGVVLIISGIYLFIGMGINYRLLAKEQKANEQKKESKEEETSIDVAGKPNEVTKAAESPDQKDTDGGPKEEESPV
Experimental: Transport studies with human PepT1 (SLC15A1), LAT1 (SLC7A5) and MCT1 (SLC16A1) were conducted in MDCK-II cells expressing the human transporter or control cells expressing a vector with Green Fluorescence Protein. Cells were transfected using a proprietary, transient transfection system (OPTI-EXPRESSION Technology, BioIVT). The results from the control cells were used to correct for substrate permeation by routes other than the transporter being investigated in the study. […] Specifically, Net Transporter Mediated Substrate Uptake (pmol/min/cm^2) = (Cellular accumulation in the presence of the transporter) − (Mean cellular accumulation in the absence of the transporter). MDCK-II cells were maintained in DMEM with low glucose and 10% FBS. Cells were used at passages up to 40 were seeded at 60,000 ± 10,000 cells/well on 96-well plates approximately 24 h before transfection, and transport assays were performed approximately 48 h after transfection. Transport studies in MDCK-II cells were conducted in 96-well insert plates with permeable membrane (0.4 µm) and receiver tray (Millipore MultiScreen Filter 96-well).
Transport studies with PepT1 were conducted in 96-well cell culture plate with wells containing a monolayer of MDCK-II cells grown on a permeable support and a corresponding 96-well receiver tray. Cell plates are maintained at 37 °C in 5% CO2 atmosphere prior to initiation of the transport experiment. Pre-incubation was conducted in HBSS, pH 7.4. The transport experiments were conducted in HBSS with Bis–Tris, pH 5.5, without phenol red. Both pre-incubation and incubation were conducted at 37 °C. All final assay solutions of probe substrate, reference inhibitor or test article contain 0.5% (v/v) DMSO (vehicle control). The culture plate insert […] was washed with warm HBSS three times and then blotted dry. The culture plate wells […] were washed with warm HBSS three times. […] Then a 30-µL sample was taken and mixed with 200 µL of scintillation fluid and scintillation counted (1450 Microbeta, Perkin-Elmer). […]

## CC(=O)N[C@@H](CC(C)C)C(=O)O [N-acetyl-L-leucine]
Human PepT1 (SLC15A1)
  substrate of PepT1 (uptake): not transported; also recorded: not a substrate
Human MCT1 (SLC16A1)
  Vmax MCT1 uptake: 224
